Source: patent US20030124616A1, “Homocysteinylated transthyretin” (priority 2001, published 2003)

Columns and labels:
albumin = target: T1, albumin (Homo sapiens, UniProt P02768); experiment: Binding of 35S-L-homocysteine and 35S-L-cysteine to plasma proteins (SDS-PAGE, phosphorimaging); details: 500 μmol/L, plasma diluted 1:1 with TES buffer
T1 construct: from tissue; host or cells: human plasma
Description: (§1) ^35S-L-homocysteine (500 μmol/L final concentration) was added to either human plasma fibronectin (1 mg/mL, 0.05 mol/L TES buffer, pH 7.4) or human plasma diluted 1:1 with 0.05 mol/L TES buffer, pH 7.4 and incubated under aerobic conditions for 5 hours at 37° C. with continuous shaking. Separate samples of human plasma and fibronectin were incubated with ^35S-L-cysteine (1,000 Ci/mmol) (New England Nuclear, Boston, Mass.) which was first diluted with cold L-cysteine (in 1 mol/L TES buffer, pH 7.4) to obtain a specific activity equal to that of the synthesized ^35S-L-homocysteine. The final concentrations of L-cysteine and TES in the reaction mixture was 500 μmol/L and 0.05 mol/L respectively and the incubation was carried out as described above for L-homocysteine. The bound radioactive homocysteine was detected by SDS-PAGE of the samples followed by phosphorimage analysis (Molecular Dynamics Inc., Sunnyvale, Calif.).
(§2) Samples were combined with SDS-PAGE sample buffer (62.5 mmol/L Tris-HCl, pH 6.8, 2% SDS, 10% glycerol, 0.02% bromophenol blue) and aliquots of some samples were reduced with 2-mercaptoethanol and heated to 100° C. for 5 minutes. The samples were loaded onto 4-20% precast gradient gels (Z Axis, Hudson, Ohio) and electrophoresed using the method of Laemmli. […]

human plasma fibronectin [1] = experiment: Binding of 35S-L-homocysteine and 35S-L-cysteine to fibronectin (SDS-PAGE, phosphorimaging); details: 500 μmol/L, 5 hours at 37° C.
Description: as §1, §2

[2] = target: T2, human transthyretin (TTR) (Homo sapiens, UniProt P02766); experiment: Radiolabeling and SDS-PAGE of human plasma and purified transthyretin with 35S-L-homocysteine; format: binding; details: 0.5 mM, 5 h, label lost with β-mercaptoethanol
T2 construct: Plasma TTR is a 127 amino acid protein containing a single cysteine residue at position 10; purchased Sigma
Description: ^35S-L-Homocysteine was incubated with 50% human plasma in 0.05 M TES buffer (pH 7.4), or with purified human transthyretin (1 mg/ml in water) for 5 h at 37 C. Protein was then precipitated with 1.5 M perchloric acid and washed three times with 1.5 M perchloric acid. The final pellet was solubilized in SDS-PAGE sample buffer with and without reduction by β-mercaptoethanol. After treatment at 100 C. for 10 min, aliquots were subjected to analysis by SDS-PAGE using a 10% gel. The gel was stained with Coomassie blue, dried and subjected to phosphorimaging to detect ^35S- labeled proteins.
In FIG. 1, ^35S-L-Homocysteine (0.5 mM) was incubated with 50% human plasma in 0.05M TES buffer (pH 7.4) and with commercially available human transthyretin from Sigma (1 mg/mL in water) for 5 hours at […]. Following the incubation, protein was precipitated with 1.5M perchloric acid and solubilized with SDS-PAGE sample buffer. Aliquots were subjected to analysis by SDS-PAGE using a 10% gel without (see lanes 1 and 2 in FIG. 1) and with reduction by β-mercaptoethanol followed by heating at 100° C. for 10 minutes (see lanes 3 and 4 in FIG. 1). The gel was strained with Coomassie blue, dried and subjected to phosphorimaging to detect ^35S-labeled proteins. […]

human plasma fibronectin [3] = experiment: Stoichiometry of 35S-L-homocysteine binding to fibronectin (scintillation counting)
Description: The human plasma fibronectin purified by affinity chromatography described above was used in these studies. Purity was assessed by SDS-PAGE as described below. Purified fibronectin (200 μg/mL) was incubated with various concentrations (up to 500 μmol/L) of ^35S-L-homocysteine for up to 10 hours at 37° C. Unbound homocysteine was removed by precipitating the fibronectin with 5% trichloroacetic acid containing 0.5% tannic acid using transferrin as a carrier protein. The precipitated fibronectin was washed 3 times with the trichloroacetic acid/tannic acid, resuspended in 0.1 N NaOH and an aliquot subjected to scintillation counting.

T1 sequence (P02768 25-609): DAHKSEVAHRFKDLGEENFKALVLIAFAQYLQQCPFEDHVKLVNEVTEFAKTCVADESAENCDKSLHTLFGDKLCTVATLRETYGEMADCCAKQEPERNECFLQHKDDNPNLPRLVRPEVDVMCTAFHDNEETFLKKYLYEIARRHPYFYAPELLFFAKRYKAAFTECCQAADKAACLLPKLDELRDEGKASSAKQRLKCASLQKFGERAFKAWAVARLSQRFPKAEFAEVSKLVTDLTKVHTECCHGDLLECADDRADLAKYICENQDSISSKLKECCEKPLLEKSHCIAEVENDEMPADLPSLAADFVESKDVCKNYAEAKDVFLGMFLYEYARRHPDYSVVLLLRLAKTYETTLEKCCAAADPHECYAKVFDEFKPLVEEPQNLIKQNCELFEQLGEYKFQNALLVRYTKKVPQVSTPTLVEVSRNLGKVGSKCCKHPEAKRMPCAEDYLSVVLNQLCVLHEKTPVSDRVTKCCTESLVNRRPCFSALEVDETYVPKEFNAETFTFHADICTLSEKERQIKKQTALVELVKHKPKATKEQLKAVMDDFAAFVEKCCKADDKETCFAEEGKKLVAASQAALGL

| SMILES | binding to albumin in human plasma (albumin) | binding to fibronectin in plasma or purified fibronectin (human plasma fibronectin [1]) | reaction with TTR (labeling of TTR dimer and tetramer) [2] | time for binding to fibronectin to reach equilibrium (human plasma fibronectin [3]; 500 μmol/L homocysteine) [h] | maximum homocysteine bound per mole of dimeric fibronectin (human plasma fibronectin [3]; up to 500 μmol/L homocysteine, 37° C.) [mol] |
| --- | --- | --- | --- | --- | --- |
| N[C@@H](CS)C(=O)O [L-cysteine] | bound to albumin | did not bind | – | – | – |
| N[C@@H](CCS)C(=O)O [L-homocysteine] | most of the radioactivity in the plasma was associated with albumin | bound via a disulfide linkage | readily reacts with the Cys^10 position of TTR | ≤ 5 | 5 |
